Assay results from patent US9487508B2, “SGC stimulators” (IRONWOOD PHARMACEUTICALS, INC., priority 2012, dated 2016).

What was measured:
[1] = target: T1, soluble guanylate cyclase (sGC) (Homo sapiens, UniProt Q02108+Q02153); experiment: HEK whole cell assay using HTRF procedure (with SNP incubation); assay type: cell-based; conditions: HTRF cGMP read-out, 10 μM SNP; for Emax: relative to BAY 41-2272 at 10 μM with 100 μM SNP, read-out: HEK assay Emax-unconstrained (Percent); for EC50: top of curve not fitted to 100%, read-out: HEK assay EC50-unconstrained
T1 construct: endogenously expressing soluble guanylate cyclase (sGC); endogenous in cells; host or cells: HEK293
T1 sequence (Q02153 1-619): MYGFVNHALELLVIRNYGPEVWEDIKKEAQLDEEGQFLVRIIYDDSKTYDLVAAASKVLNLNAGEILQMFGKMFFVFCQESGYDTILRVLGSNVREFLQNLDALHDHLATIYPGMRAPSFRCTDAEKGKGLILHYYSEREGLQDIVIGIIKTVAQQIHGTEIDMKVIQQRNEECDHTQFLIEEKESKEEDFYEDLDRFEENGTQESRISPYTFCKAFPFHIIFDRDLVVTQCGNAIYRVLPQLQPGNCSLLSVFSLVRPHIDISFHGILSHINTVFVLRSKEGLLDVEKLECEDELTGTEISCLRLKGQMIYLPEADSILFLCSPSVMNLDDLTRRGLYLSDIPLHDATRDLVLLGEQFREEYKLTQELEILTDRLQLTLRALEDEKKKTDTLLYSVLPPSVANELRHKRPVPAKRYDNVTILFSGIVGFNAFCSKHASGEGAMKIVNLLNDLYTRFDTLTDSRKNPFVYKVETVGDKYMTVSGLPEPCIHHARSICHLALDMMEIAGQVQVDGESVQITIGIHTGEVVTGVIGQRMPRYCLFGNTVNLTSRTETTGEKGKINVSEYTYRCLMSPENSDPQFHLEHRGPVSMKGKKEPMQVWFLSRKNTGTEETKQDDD
T1 sequence (Q02108 1-690): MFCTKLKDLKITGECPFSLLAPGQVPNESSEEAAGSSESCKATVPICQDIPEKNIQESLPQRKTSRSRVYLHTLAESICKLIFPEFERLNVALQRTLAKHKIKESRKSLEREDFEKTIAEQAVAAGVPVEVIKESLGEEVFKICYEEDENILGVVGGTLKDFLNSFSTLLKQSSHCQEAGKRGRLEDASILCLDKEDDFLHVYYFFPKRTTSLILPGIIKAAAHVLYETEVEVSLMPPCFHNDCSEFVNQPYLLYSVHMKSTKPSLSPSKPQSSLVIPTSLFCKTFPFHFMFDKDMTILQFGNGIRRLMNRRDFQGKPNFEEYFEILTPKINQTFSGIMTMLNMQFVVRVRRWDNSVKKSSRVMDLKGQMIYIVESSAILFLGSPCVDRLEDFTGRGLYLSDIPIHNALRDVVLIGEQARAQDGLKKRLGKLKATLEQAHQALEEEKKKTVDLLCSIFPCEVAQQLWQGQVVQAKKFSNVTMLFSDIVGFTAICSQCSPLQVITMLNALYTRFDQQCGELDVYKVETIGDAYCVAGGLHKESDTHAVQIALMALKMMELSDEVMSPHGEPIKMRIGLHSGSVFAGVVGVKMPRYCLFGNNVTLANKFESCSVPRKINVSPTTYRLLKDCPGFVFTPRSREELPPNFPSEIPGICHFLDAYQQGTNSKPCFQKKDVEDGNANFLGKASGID
Method: Example 2B, HEK whole cell assay using HTRF procedure (Assay Run with SNP Incubation)
(§1) Human embryonic kidney cells (HEK293), endogenously expressing soluble guanylate cyclase (sGC), were used to evaluate the activity of test compounds. Compounds stimulating the sGC enzyme should cause an increase in the intracellular concentration of cGMP. HEK 293 cells were seeded in Dulbecco's Modification of Eagle's Medium supplemented with fetal bovine serum (10% final) and L-glutamine (2 mM final) in a 200 μL volume at a density of 1×10^5 cells/well in a poly-D-lysine coated 96 well flat bottom plate and grown overnight at 37° C. Medium was aspirated and cells were washed with 1× Hank's Buffered Saline Salt Solution (200 μL). Cells were then incubated for 15 minutes at 37° C. with 200 μL of a 0.5 mM 3-isobutyl-1-methylxanthine (IBMX) solution. Test article and sodium nitroprusside solutions (x μM concentration for test article solution and 10 μM concentration for SNP solution; wherein x is one of the following concentrations);
were then added to the assay mixture (2 μL each) and the resulting mixture incubated at 37° C. for 10 minutes. After the 10 minute incubation, the assay mixture was aspirated and 0.1M HCl (200 μL) was added to the cells. The plate was incubated at 4° C. for 30 minutes in the 0.1M HCl to stop the reaction and lyse the cells. The plates were then centrifuged at 1,200 g for 5 minutes at room temperature.
cGMP levels were determined using a cGMP HTRF assay (Cisbio Product #62GM2PEC). For each sample, 5 uL of HEK assay supernatant was diluted 1:5 in HTRF kit assay diluent and transferred to a well of the assay plate, and the HTRF assay was performed according to the HTRF kit manufacturer's instructions. Sample calculations were performed using high and low controls, where high control was supernatant from HEK assay performed in the presence of 10 uM Bay 41-2272+100 uM SNP, and the low control was the supernatant from the HEK assay performed in the presence of vehicle. A cGMP standard solution was prepared in 0.1 M HCl and diluted in order to perform a cGMP standard curve using the HTRF assay. Using Mean Ratio data from the HTRF assay, sample date were normalized according to the equation: 100*(Sample−Low Control)/(High Control−Low Control). Data were fit to a 3-parameter log agonist dose response (Top (% EMax), Bottom, log EC50) using Graphpad (Prism Software). Data in Table 3C was obtained using this modified assay procedure.

[2] = target: T1, soluble guanylate cyclase (sGC); experiment: sGC-HEK-cGMP assay with SNP incubation (LC/MS read-out); assay type: cell-based; conditions: 10 μM SNP; for Emax at 1 µM: 1 μM compound, read-out: HEK assay (Percent Emax at 1 μM); for Emax at 1 µM / Emax at 10 µM / Emax at 30 µM: 100% = BAY 41-2272 at 10 μM with 100 μM SNP; for Emax at 10 µM: 10 μM compound, read-out: HEK assay (Percent Emax at 10 μM); for Emax at 30 µM: 30 μM compound, read-out: HEK assay (Percent Emax at 30 μM); for Emax: maximum of full concentration-response curve, top not fitted to 100%, relative to BAY 41-2272 control, read-out: HEK assay Emax-unconstrained (Percent); for EC50: top of curve not fitted to 100%, read-out: HEK assay EC50-unconstrained
Method: (Assay Run with SNP Incubation)
as §1, with “receptor” for “enzyme”
were then added to the assay mixture (2 μL each) and the resulting mixture incubated at 37° C. for 10 minutes. After the 10 minute incubation, the assay mixture was aspirated and 0.1M HCl (200 μL) was added to the cells. The plate was incubated at 4° C. for 30 minutes in the 0.1M HCl to stop the reaction and lyse the cells. The plates were then centrifuged at 1,200 g for 5 minutes at room temperature. Supernatants were collected and transferred to a new flat bottom 96 well plate for analysis by HPLC-MS. Vehicle controls were carried out using DMSO (1%) solutions. A known sGC stimulator, BAY 41-2272, was used as the positive control. Samples were diluted with an equal volume of 1 M Ammonium Acetate (pH 7) to neutralize samples for better chromatography. A 2×cGMP standard solution was prepared in 0.1 M HCl and then diluted with an equal volume of 1 M Ammonium Acetate, with the following final concentrations in nM: 1024, 512, 256, 128, 64, 32, 16, 8, 4, 2, 1. cGMP concentrations in the test plates were determined from each sample using the LC/MS conditions shown in Table 2 below and the calculated cGMP standard curve. EC50 values were calculated from concentration-response curves generated with GraphPad Prism Software.
The biological activities of some of the compounds of Formula I or Formula Ib determined with the sGC-HEK assay with SNP incubation are summarized in Tables 3A and 3B.

[3] = tested on: lambs with acute pulmonary hypertension; conditions: cited from earlier work; for pulmonary vasodilation / effect on mean arterial pressure / systemic arterial oxygenation / transpulmonary cGMP release: inhaled microparticles, awake lambs; for pulmonary vasodilation: U-46619 infused to mean pulmonary arterial pressure 35 mm Hg; for effect on mean arterial pressure / systemic arterial oxygenation / transpulmonary cGMP release: U-46619 infusion

Emax at 1 µM [2] [%]	Emax at 10 µM [2] [%]	Emax at 30 µM [2] [%]	Emax [2] [%]	EC50 [2] [nM]	Structure (SMILES)	further results
80 to 100	100 to 120	100 to 120	100 to 120	10 to 100	CC(C)[C@@H](C(=O)O)N(C)c1nc(-n2cc(-c3ccon3)c(Cc3ccccc3F)n2)ncc1F [Compound I-4]	
60 to 80	80 to 100	80 to 100	80 to 100	10 to 100	O=c1[nH]c(-n2cc(-c3ccon3)c(Cc3ccccc3F)n2)ncc1F [Compound I-1]	

More lines, now with the values behind:

Structure (SMILES)	Emax at 1 µM [2] [%]	Emax at 10 µM [2] [%]	Emax at 30 µM [2] [%]	Emax [2] [%]	EC50 [2] [nM]	further results
Fc1ccccc1Cc1nn(-c2ncc(F)c(N3CCOCC3)n2)cc1-c1ccon1 [Compound I-6]						Emax [1]: 80 to 100%; EC50 [1]: 100 to 500 nM
OCC(O)Cn1ccc2cnc(-n3cc(-c4ccon4)c(Cc4ccccc4F)n3)nc21 (stereo not shown) [Compound I-7]						Emax [1]: 80 to 100%; EC50 [1]: 100 to 500 nM
COc1nc(-n2cc(-c3ccon3)c(Cc3ccccc3F)n2)ncc1F [Compound I-10]	20 to 40	20 to 40	20 to 40	20 to 40	500 to 1000	
O=C(O)CCCCN(CCc1ccccc1OCc1ccc(CCc2ccccc2)cc1)Cc1ccc(C(=O)O)cc1 [BAY 58-2667]						pulmonary vasodilation and transpulmonary cGMP release after treatment with ODQ ([3]; inhaled microparticles after intravenous ODQ, lambs): greatly enhanced; pulmonary vasodilation [3]: dose dependent pulmonary vasodilation; effect on mean arterial pressure [3]: without significant effect; systemic arterial oxygenation [3]: increased systemic arterial oxygenation; transpulmonary cGMP release [3]: increased transpulmonary cGMP release
OCC(CO)Nc1nc(-n2cc(-c3ccon3)c(Cc3ccccc3F)n2)ncc1F [Compound I-5]						Emax [1]: 80 to 100%; EC50 [1]: 100 to 500 nM
Nc1ccnc(-n2cc(-c3ccon3)c(Cc3ccccc3F)n2)n1 [Compound I-9]	60 to 80	80 to 100	80 to 100	80 to 100	100 to 500	
O=c1onc2cnc3ccccc3n12 [ODQ, 1H-[1,2,4]oxadiazolo[4,3-a]quinoxalin-1-one]						pulmonary vasodilator effect of iNO ([3]; intravenous administration, lambs): markedly reduced
Nc1nc(-c2nn(Cc3ccccc3F)c3ncccc23)ncc1C1CC1 [BAY 41-2272]						pulmonary vasodilation [3]: dose dependent pulmonary vasodilation; effect on mean arterial pressure [3]: without significant effect; transpulmonary cGMP release [3]: increased transpulmonary cGMP release
Nc1nc(-c2nn(Cc3ccccc3F)c3ncccc23)nc(N)c1N1CCOCC1 [BAY 41-8543]						magnitude and duration of pulmonary vasodilation induced by iNO ([3]; after inhaling microparticles, lambs): augmented; pulmonary vasodilation [3]: dose dependent pulmonary vasodilation; effect on mean arterial pressure [3]: without significant effect; systemic arterial oxygenation [3]: increased systemic arterial oxygenation; transpulmonary cGMP release [3]: increased transpulmonary cGMP release
